Assay results published in the supplement of paper PMC10307832.

Assays:
Experiment in all cases: relative viability (nuclei count vs DMSO), 5 days (fraction); higher = more cells survive
[1] = compound: C[C@H]([C@@H](C(=O)N)NC(=O)[C@@H]1CSSC[C@@H](C(=O)N[C@H](C(=O)N[C@@H](C(=O)N[C@H](C(=O)N1)CCCCN)CC2=CNC3=CC=CC=C32)CC4=CC=C(C=C4)O)NC(=O)[C@@H](CC5=CC=CC=C5)N)O [CAP-232] + O=C(c1cc(Cc2n[nH]c(=O)c3ccccc23)ccc1F)N1CCN(C(=O)C2CC2)CC1 [Olaparib] (partner 8 µM)
How it was run: (§1)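 One day after seeding in 1536-well plates, lung cancer cell lines were dosed by pin tool. Dosing was either single-drug or a fixed anchor-drug dose plus five library-drug doses (not always all listed) in √10 steps. After 5 days, nuclei were stained in one fix-and-stain step and counted on 4× images, and relative viability is the nuclei count of treated wells over that of vehicle wells, given as the median of duplicate plates.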

[2] = compound: C[C@H]([C@@H](C(=O)N)NC(=O)[C@@H]1CSSC[C@@H](C(=O)N[C@H](C(=O)N[C@@H](C(=O)N[C@H](C(=O)N1)CCCCN)CC2=CNC3=CC=CC=C32)CC4=CC=C(C=C4)O)NC(=O)[C@@H](CC5=CC=CC=C5)N)O [CAP-232] + Nc1ncn([C@H]2C[C@H](O)[C@@H](CO)O2)c(=O)n1 [Decitabine] (partner 2 µM)
How it was run: as §1

[3] = compound: C[C@H]([C@@H](C(=O)N)NC(=O)[C@@H]1CSSC[C@@H](C(=O)N[C@H](C(=O)N[C@@H](C(=O)N[C@H](C(=O)N1)CCCCN)CC2=CNC3=CC=CC=C32)CC4=CC=C(C=C4)O)NC(=O)[C@@H](CC5=CC=CC=C5)N)O [CAP-232] + Cc1nc(Nc2ncc(C(=O)Nc3c(C)cccc3Cl)s2)cc(N2CCN(CCO)CC2)n1 [Dasatinib] (partner 0.075 µM)
How it was run: as §1

[4] = compound: C[C@H]([C@@H](C(=O)N)NC(=O)[C@@H]1CSSC[C@@H](C(=O)N[C@H](C(=O)N[C@@H](C(=O)N[C@H](C(=O)N1)CCCCN)CC2=CNC3=CC=CC=C32)CC4=CC=C(C=C4)O)NC(=O)[C@@H](CC5=CC=CC=C5)N)O [CAP-232] + CC1(C)CCC(c2ccc(Cl)cc2)=C(CN2CCN(c3ccc(C(=O)NS(=O)(=O)c4ccc(N[C@H](CCN5CCOCC5)CSc5ccccc5)c(S(=O)(=O)C(F)(F)F)c4)cc3)CC2)C1 [Navitoclax] (partner 0.5 µM)
How it was run: as §1

[5] = compound: C[C@H]([C@@H](C(=O)N)NC(=O)[C@@H]1CSSC[C@@H](C(=O)N[C@H](C(=O)N[C@@H](C(=O)N[C@H](C(=O)N1)CCCCN)CC2=CNC3=CC=CC=C32)CC4=CC=C(C=C4)O)NC(=O)[C@@H](CC5=CC=CC=C5)N)O [CAP-232] + COc1cc2c(Oc3ccc(NC(=O)C4(C(=O)Nc5ccc(F)cc5)CC4)cc3F)ccnc2cc1OCCCN1CCOCC1 [Foretinib] (partner 0.25 µM)
How it was run: as §1

| Cell Line | relative viability ([1]; first compound 0.4 µM) | relative viability ([1]; first compound 1.265 µM) | relative viability ([1]; first compound 4 µM) | relative viability ([1]; first compound 12.65 µM) | relative viability ([2]; first compound 0.4 µM) | relative viability ([2]; first compound 1.265 µM) | relative viability ([2]; first compound 4 µM) | relative viability ([2]; first compound 12.65 µM) | relative viability ([3]; first compound 0.4 µM) | relative viability ([3]; first compound 1.265 µM) | relative viability ([3]; first compound 4 µM) | relative viability ([3]; first compound 12.65 µM) | relative viability ([4]; first compound 0.4 µM) | relative viability ([4]; first compound 1.265 µM) | relative viability ([4]; first compound 4 µM) | relative viability ([4]; first compound 12.65 µM) | relative viability ([5]; first compound 0.4 µM) | relative viability ([5]; first compound 1.265 µM) | relative viability ([5]; first compound 4 µM) | relative viability ([5]; first compound 12.65 µM) |
| --- | --- | --- | --- | --- | --- | --- | --- | --- | --- | --- | --- | --- | --- | --- | --- | --- | --- | --- | --- | --- |
| UMC-11 | 0.358 | 0.339 | 0.374 | 0.248 | 0.55 | 0.55 | 0.581 | 0.671 | 0.621 | 0.494 | 0.587 | 0.316 | 0.317 | 0.307 | 0.295 | 0.297 | 1.09 | 1.1 | 1.12 | 0.977 |
| HOP-62 | 1.08 | 0.388 | 0.604 | 0.709 | 0.255 | 0.209 | 0.256 | 0.229 | 0.703 | 0.667 | 0.655 | 0.547 | 0.792 | 0.955 | 1.17 | 0.902 | 1.04 | 1.07 | 1.01 | 1.03 |
| NCI-H727 | 0.705 | 0.613 | 0.757 | 0.648 | 0.717 | 0.831 | 1.07 | 0.957 | 0.301 | 0.362 | 0.38 | 0.335 | – | 0.431 | 0.377 | 0.347 | 0.933 | 0.92 | 0.845 | 0.824 |
| NCI-H1734 | 0.596 | 0.609 | 0.605 | 0.512 | 0.484 | 0.511 | 0.516 | 0.397 | 0.45 | 0.459 | 0.461 | 0.446 | 0.778 | 0.849 | 0.889 | 0.767 | 0.883 | 0.863 | 0.971 | 0.697 |
| EKVX | 0.901 | 0.95 | 0.993 | 0.804 | 0.993 | 0.367 | 0.256 | 0.323 | 0.457 | 0.605 | 0.499 | 0.509 | 1.07 | 1.07 | 0.951 | 0.714 | 0.77 | 0.571 | 0.768 | 0.768 |
| HARA | 0.823 | 0.784 | 0.865 | 0.609 | 0.526 | 0.555 | 0.523 | 0.527 | 0.266 | 0.256 | 0.305 | 0.27 | 1.14 | 1.16 | 1.13 | 1.21 | 0.983 | 0.975 | 0.805 | 0.824 |
| EMC-BAC-2 | 0.52 | 0.47 | 0.469 | 0.398 | 0.969 | 0.963 | 0.959 | 0.972 | 0.36 | 0.31 | 0.353 | 0.28 | 1.23 | 1.25 | 1.38 | 0.935 | 1.1 | 0.953 | 1.01 | 0.907 |
| PC-3 [JPC-3] | 1.16 | 1.21 | 1.2 | 1.08 | 0.738 | 0.895 | 0.821 | 0.864 | 1.08 | 1.06 | 1.08 | 0.908 | 0.827 | 0.801 | 0.725 | 0.698 | 1.1 | 1.02 | 1.05 | 0.98 |
| NCI-H520 | 0.349 | 0.304 | 0.321 | 0.303 | 0.496 | 0.509 | 0.518 | 0.416 | 0.189 | 0.193 | 0.251 | 0.201 | 1.03 | 0.997 | 1.13 | 0.582 | 0.734 | 0.98 | 0.92 | 0.47 |
| NCI-H1755 | 0.911 | 0.881 | 0.935 | 0.824 | 0.734 | 0.738 | 0.761 | 0.723 | 0.358 | 0.461 | 0.48 | 0.372 | 0.6 | 1.1 | 1.1 | 0.949 | 0.927 | 0.883 | 0.934 | 0.815 |
| NCI-H2087 | 0.646 | 0.669 | 0.697 | 0.312 | 0.265 | 0.261 | 0.276 | 0.238 | 0.681 | 0.969 | 0.757 | 0.737 | 1.19 | 1.16 | 1.02 | 0.616 | 1.17 | 1.2 | 1.1 | 0.665 |
| NCI-H2023 | 0.485 | 0.498 | 0.497 | 0.326 | 0.242 | 0.2 | 0.239 | 0.153 | 0.696 | 0.598 | 0.608 | 0.137 | 1.15 | 1 | 1.06 | 0.579 | 0.899 | 0.946 | 0.766 | 0.294 |
| NCI-H2085 | 0.825 | 0.764 | 0.743 | 0.771 | 0.56 | 0.542 | 0.511 | 0.545 | 0.232 | 0.193 | 0.223 | 0.19 | 1.18 | 1.06 | 1.15 | 1.15 | 0.933 | 0.87 | 1.1 | 0.998 |
| LCLC-97TM1 | 0.418 | 0.421 | 0.346 | 0.438 | 0.195 | 0.211 | 0.192 | 0.237 | 0.896 | 0.889 | 0.82 | 0.851 | 0.408 | 0.294 | 0.397 | 0.366 | 0.879 | 0.9 | 1.01 | 0.925 |
